In PMC6705415 (Nature structural & molecular biology, 2019):
Numbering of substitutions follows the chain as printed.

Columns and labels:
[1] = test system: hENT1 Gly154 mutated to serine; details: Gly154 to serine mutation in hENT1 versus wild type; cited from earlier work
[2] = biological target: T1, hENT1 Met33Ile (hENT1cryst background) (Homo sapiens, UniProt Q99808, DEL243-274/L168F/M33I/N288K/P175A); assay: Cold dilazep displacement of 3H-NBMPR; assay type: binding; details: Met33Ile relative to hENT1cryst; displacement of 100 nM 3H-NBMPR
T1 sequence (Q99808 with tags, fused parts or gaps M33I/L168F/P175A/DEL243-274/N288K): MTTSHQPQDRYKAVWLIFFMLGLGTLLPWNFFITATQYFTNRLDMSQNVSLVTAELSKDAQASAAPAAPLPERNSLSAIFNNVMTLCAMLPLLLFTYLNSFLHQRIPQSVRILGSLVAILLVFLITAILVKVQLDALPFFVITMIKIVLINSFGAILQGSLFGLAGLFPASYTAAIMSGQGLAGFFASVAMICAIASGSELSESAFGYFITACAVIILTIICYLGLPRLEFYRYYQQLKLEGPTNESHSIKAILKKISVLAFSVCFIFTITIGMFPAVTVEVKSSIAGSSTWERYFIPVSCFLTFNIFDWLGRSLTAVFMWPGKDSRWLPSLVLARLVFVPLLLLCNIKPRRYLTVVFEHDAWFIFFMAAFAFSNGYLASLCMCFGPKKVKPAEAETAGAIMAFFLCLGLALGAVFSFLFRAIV

[3] = biological target: T2, hENT1 Phe307Ala (hENT1cryst background) (Homo sapiens, UniProt Q99808, DEL243-274/F307A/L168F/N288K/P175A); assay: Cold dilazep displacement of 3H-NBMPR; assay type: binding; details: Phe307Ala relative to hENT1cryst; displacement of 100 nM 3H-NBMPR
T2 sequence (Q99808 with tags, fused parts or gaps L168F/P175A/DEL243-274/N288K/F307A): T1 sequence (Q99808 with tags, fused parts or gaps M33I/L168F/P175A/DEL243-274/N288K) with I33M, F275A

[4] = biological target: T3, hENT1 Phe307Tyr (hENT1cryst background) (Homo sapiens, UniProt Q99808, DEL243-274/F307Y/L168F/N288K/P175A); assay: Cold dilazep displacement of 3H-NBMPR; assay type: binding; details: Phe307Tyr relative to hENT1cryst; displacement of 100 nM 3H-NBMPR
T3 sequence (Q99808 with tags, fused parts or gaps L168F/P175A/DEL243-274/N288K/F307Y): T1 sequence (Q99808 with tags, fused parts or gaps M33I/L168F/P175A/DEL243-274/N288K) with I33M, F275Y

Compound	decrease in NBMPR inhibitory potency [1]	increase in apparent Kd for dilazep [2]	increase in apparent Kd for dilazep [3]	decrease in apparent Kd for dilazep [4]
O=[N+]([O-])c1ccc(CSc2ncnc3c2ncn3[C@@H]2O[C@H](CO)[C@@H](O)[C@H]2O)cc1 [NBMPR, S-(4-Nitrobenzyl)-6-thioinosine]	~ 2,500 fold	–	–	–
COc1cc(C(=O)OCCCN2CCCN(CCCOC(=O)c3cc(OC)c(OC)c(OC)c3)CC2)cc(OC)c1OC [dilazep]	–	~ 3 fold	~ 90 fold	~ 4 fold
